This is an account of results in patent publication US20100111888A1, “Organic Compounds and Compositions Having the Ability to Modulate Fragrance Compositions” (GIVAUDAN SA, priority 2007, published 2010).

pIC50: −log10 of the molar value.

For this assay, the target named is T1, CYP2A13 (Homo sapiens, UniProt Q16696).
T1 construct: made in house; host or cells: Sf9 insect cells, recombinant baculovirus
T1 sequence (Q16696 1-494): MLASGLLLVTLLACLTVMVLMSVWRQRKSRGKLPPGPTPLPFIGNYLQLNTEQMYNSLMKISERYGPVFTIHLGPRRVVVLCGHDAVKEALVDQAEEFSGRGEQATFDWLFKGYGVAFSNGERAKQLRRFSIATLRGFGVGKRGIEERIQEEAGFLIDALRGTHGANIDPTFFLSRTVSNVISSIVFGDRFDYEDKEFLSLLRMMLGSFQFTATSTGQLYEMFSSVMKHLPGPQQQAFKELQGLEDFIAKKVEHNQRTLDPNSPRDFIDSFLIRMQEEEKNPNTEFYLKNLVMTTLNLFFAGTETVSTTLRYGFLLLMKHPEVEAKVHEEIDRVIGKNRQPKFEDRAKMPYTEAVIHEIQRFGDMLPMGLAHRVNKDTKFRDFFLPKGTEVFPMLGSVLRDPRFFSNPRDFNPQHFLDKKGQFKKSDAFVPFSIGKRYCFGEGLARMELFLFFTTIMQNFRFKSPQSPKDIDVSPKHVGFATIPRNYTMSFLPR
Briefly: Evaluation of test compounds as inhibitors of CYP2A13 (coumarin to Umbelliferone, fluorescence). It counts as biochemical. As to conditions: substrate coumarin 0.006 mM; microsomes with 7 pmoles CYP2A13; 60 min at 37° C.; read-out: CYP2A13 inhibitor activity IC50. An excerpt: P450 reductase is commercially available (BD Biosciences Gentest, USA).
Microsomes were used which contained 7 pmoles CYP2A13.

A word on the pIC50: it is the negative decadic logarithm of the IC50, by convention in mol/L. On to `CCCCCC/C(=C\c1ccccc1)C(C)=O` [Compound ID 6, (E)-3-benzylidenenonan-2-one], for which the pIC50 was 5.52.
For `CCCCC/C(=C\c1ccc(C#N)cc1)C(C)=O` [Compound ID 7, (E)-4-(2-acetylhept-1-enyl)benzonitrile], the pIC50 is 5.70.
In the case of `CCCCC/C(=C\c1ccc2ccccc2c1)C(C)=O` [Compound ID 8, (E)-3-(naphthalen-2-ylmethylene)octan-2-one], the pIC50 is 4.79.
With `CCCCC/C(=C\c1cccs1)C(C)=O` [Compound ID 9, (E)-3-(thiophen-2-ylmethylene)octan-2-one], the pIC50 was 5.28.
Consider `CCCC/C(=C\C1CCOC1)C(C)=O` (stereo not shown) [Compound ID 10, (E)-3-((tetrahydrofuran-3-yl)methylene)heptan-2-one], for which the pIC50 is 4.81.
As for `CCCCC/C(=C\C(OC)OC)C(C)=O` [Compound ID 11, (E)-3-(2,2-dimethoxyethylidene)octan-2-one], the pIC50 was 5.80.
As for `CCCCC/C(=C\CC1(C)OCCO1)C(C)=O` [Compound ID 12, (E)-3-(2-(2-methyl-1,3-dioxolan-2-yl)ethylidene)octan-2-one], the pIC50 is 5.49.
In the case of `CCCCCC/C(=C\C1CC1)C(=O)/C=C/C1CC1` [Compound ID 13, (1E,4E)-1-cyclopropyl-4-(cyclopropylmethylene)dec-1-en-3-one], the pIC50 is 5.01.
With `CCCCCC1(C(=O)OC)CCCC1` [Compound ID 14, methyl 1-pentylcyclopentanecarboxylate], the pIC50 was 5.68.
With `CCCCCC1(C(C)=O)CCCC1` [Compound ID 15, 1-(1-pentylcyclopentyl)ethanone], the pIC50 is 6.15.
With `CCCCC/C(=C\C1CCCCC1)C(C)=O` [Compound ID 16, (E)-3-(cyclohexylmethylene)octan-2-one], the pIC50 was 6.30.
In the case of `CCCCC/C(=C\C1CC=CCC1)C(C)=O` (stereo not shown) [Compound ID 17, (E)-3-(cyclohex-3-enylmethylene)octan-2-one], the pIC50 is 6.22.
As for `CCCCC/C(=C\C1CCCC1)C(C)=O` [Compound ID 18, (E)-3-(cyclopentylmethylene)octan-2-one], the pIC50 was 6.30.
With `CCCCC/C(=C\C1CCC1)C(C)=O` [Compound ID 19, (E)-3-(cyclobutylmethylene)octan-2-one], the pIC50 was 6.52.
As for `CCCCC/C(=C\c1ccccc1F)C(C)=O` [Compound ID 20, (E)-3-(2-fluorobenzylidene)octan-2-one], the pIC50 was 6.52.
With `CCCCC/C(=C\c1cccc(F)c1)C(C)=O` [Compound ID 21, (E)-3-(3-fluorobenzylidene)octan-2-one], the pIC50 is 6.52.
Take `CCCCC/C(=C\c1ccc(F)cc1)C(C)=O` [Compound ID 22, (E)-3-(4-fluorobenzylidene)octan-2-one]: the pIC50 is 6.40.
Regarding `CCCCC/C(=C\c1c(F)cccc1F)C(C)=O` [Compound ID 23, (E)-3-(2,6-difluorobenzylidene)octan-2-one], the pIC50 is 6.70.
To `CCCCC/C(=C\c1ccc(F)cc1F)C(C)=O` [Compound ID 24, (E)-3-(2,4-difluorobenzylidene)octan-2-one] belongs 6.70; to `CCCCC/C(=C\c1cc(F)cc(F)c1)C(C)=O` [Compound ID 25, (E)-3-(3,5-difluorobenzylidene)octan-2-one], 6.22.
`CCCCC/C(=C/c1cc(F)cc(F)c1)C(C)=O` [Compound ID 26, (Z)-3-(3,5-difluorobenzylidene)octan-2-one]: the pIC50 is 4.84.
Turning to `CCCCC/C(=C\c1c(F)c(F)c(F)c(F)c1F)C(C)=O` [Compound ID 27, (E)-3-(perfluorobenzylidene)octan-2-one], the pIC50 is 6.15.
Take `CCCCC/C(=C\c1ccccc1C)C(C)=O` [Compound ID 28, (E)-3-(2-methylbenzylidene)octan-2-one]: the pIC50 was 6.52.
Under `CCCCC/C(=C\c1cccc(C)c1)C(C)=O` [Compound ID 29, (E)-3-(3-methylbenzylidene)octan-2-one] stands 6.40.
Consider `CCCCC/C(=C\c1ccc(C)cc1)C(C)=O` [Compound ID 30, (E)-3-(4-methylbenzylidene)octan-2-one], for which the pIC50 was 6.40.
To `CCCCC/C(=C\c1ccccc1C(F)(F)F)C(C)=O` [Compound ID 31, (E)-3-(2-(trifluoromethyl)benzylidene)octan-2-one] belongs 6.70; to `CCC/C(=C\c1ccccc1)C(C)=O` [Compound ID 32, (E)-3-benzylidenehexan-2-one], 6.00; to `CCCC/C(=C\c1ccccc1)C(C)=O` [Compound ID 33, (E)-3-benzylideneheptan-2-one], 6.22.
As to `CCCCC/C(=C\c1ccccc1OC)C(C)=O` [Compound ID 34, (E)-3-(2-methoxybenzylidene)octan-2-one], the pIC50 was 6.40.
To `CCCCC/C(=C\c1cccc(OC)c1)C(C)=O` [Compound ID 35, (E)-3-(3-methoxybenzylidene)octan-2-one] belongs 6.30.
Regarding `CCCCC/C(=C\c1ccc(OC)cc1)C(C)=O` [Compound ID 36, (E)-3-(4-methoxybenzylidene)octan-2-one], the pIC50 is 6.40.
Consider `CCCC/C(=C\c1ccc(OC)cc1)C(C)=O` [Compound ID 37, (E)-3-(4-methoxybenzylidene)heptan-2-one], for which the pIC50 was 5.85.
Turning to `CCC/C(=C\c1ccc(OC)cc1)C(C)=O` [Compound ID 38, (E)-3-(4-methoxybenzylidene)hexan-2-one], the pIC50 is 5.70.
`CCCCC/C(=C\c1ccc2c(c1)OCO2)C(C)=O` [Compound ID 39, (E)-3-(benzo[d][1,3]dioxol-5-ylmethylene)octan-2-one]: the pIC50 was 5.70.
`CCCCC/C(=C\c1ccc(C(=O)OC)cc1)C(C)=O` [Compound ID 40, (E)-methyl 4-(2-acetylhept-1-enyl)benzoate]: the pIC50 is 5.96.
Take `CCCCC/C(=C/c1ccc(C(=O)OC)cc1)C(C)=O` [Compound ID 41, (Z)-methyl 4-(2-acetylhept-1-enyl)benzoate]: the pIC50 was 4.33.
As to `CCCCC/C(=C\c1ccccn1)C(C)=O` [Compound ID 43, (E)-3-(pyridin-2-ylmethylene)octan-2-one], the pIC50 was 7.00.
For `CCCCC/C(=C\c1cccnc1)C(C)=O` [Compound ID 44, (E)-3-(pyridin-3-ylmethylene)octan-2-one], the pIC50 was 7.00.
Under `CCCCC/C(=C\c1ccncc1)C(C)=O` [Compound ID 45, (E)-3-(pyridin-4-ylmethylene)octan-2-one] stands 6.30; under `CCCCC/C(=C\C1CC1)C(=O)OC` [Compound ID 46, (E)-methyl 2-(cyclopropylmethylene)heptanoate], 5.64.
Consider `CCCCC/C(=C\c1ccccc1)C(=O)OC` [Compound ID 47, (E)-methyl 2-benzylideneheptanoate], for which the pIC50 was 6.30.
`CCCCCC(CC1CC1)C(=O)OC` (stereo not shown) [Compound ID 48, methyl 2-(cyclopropylmethyl)heptanoate]: the pIC50 was 5.06.
On to `CCCCCC(Cc1ccccc1)C(=O)OC` (stereo not shown) [Compound ID 49, methyl 2-benzylheptanoate], for which the pIC50 is 5.36.
In the case of `CCCCCC(CC1CC1)C(C)=O` (stereo not shown) [Compound ID 50, 3-(cyclopropylmethyl)octan-2-one], the pIC50 was 5.89.
Turning to `CCCCC/C(C(C)=O)=C(/C)c1ccccc1` [Compound ID 51, (E)-3-(1-phenylethylidene)octan-2-one], the pIC50 is 5.60.
Consider `CCCCC/C(=C\C1CC1)C(=O)c1ccccc1` [Compound ID 52, (E)-2-(cyclopropylmethylene)-1-phenylheptan-1-one], for which the pIC50 is 5.18.
With `CCCCC/C(=C\C(C)(C)C)C(=O)OC` [Compound ID 53, (E)-methyl 2-(2,2-dimethylpropylidene)heptanoate], the pIC50 was 5.72.
To `CCCCC/C(=C\C(C)(C)C)C(=O)O` [Compound ID 54, (E)-2-(2,2-dimethylpropylidene)heptanoic acid] belongs 5.59; to `CCCCC/C(=C\C(C)(C)C)C(C)=O` [Compound ID 55, (E)-3-(2,2-dimethylpropylidene)octan-2-one], 6.52.
Regarding `CCCCC/C(=C\C(C)C)C(C)=O` [Compound ID 56, (E)-3-(2-methylpropylidene)octan-2-one], the pIC50 is 6.70.
As to `CCCCC/C(=C\C1CC1)C(=O)CC` [Compound ID 57, (E)-4-(cyclopropylmethylene)nonan-3-one], the pIC50 was 6.52.
Take `CCCCC/C(=C\c1ccccc1)C(=O)CC` [Compound ID 58, (E)-4-benzylidenenonan-3-one]: the pIC50 was 6.30.
